Assay results reported in patent publication US20090306149A1, “USE OF BIARYLCARBOXAMIES IN THE TREATMENT OF HEDGEHOG PATHWAY-RELATED DISORDERS” (priority 2006, published 2009).
Like-named read-outs stand apart in the source and are kept apart here.

How the values were obtained:
[1] = test system: gli-luciferase activity (Hh pathway) in TMHh12 cells; experiment: "IC50 shift" gli-luciferase reporter assay in TMHh12 cells with a small molecule Smo agonist; assay type: cell-based, mouse; details: Mus musculus, TMHh12, TMHh12 cells
Description: (§1) TM3 cells (mouse) transfected with a new proprietary reporter construct (pTA-8xGli-Luc). The pTA-8xGli-Luc reporter produces approx. 4 fold more luciferase activity than classical 8xGli-LUC. A highly responsive stable clone has been selected (TMHh12) with >10-fold signal/noise ratio and <10% CV in 384 well format.
“IC50 shift” assays in TMHh12 cells. IC50 for antagonism of gli-luciferase activity was tested in the presence of increasing concentrations of a small molecule agonist which binds to Smo with 1 nM affinity and activates the Hh pathway.
Table 1 lists the IC50 of antagonists determined in the presence of different (1 nM and 25 nM) concentrations of a small agonist of Smoothened.

Smoothened = Smoothened (Homo sapiens, UniProt Q99835); experiment: Smo binding assay, displacement of a small molecule agonist of Smoothened, filter binding format
Chain of Smoothened (Q99835 28-787): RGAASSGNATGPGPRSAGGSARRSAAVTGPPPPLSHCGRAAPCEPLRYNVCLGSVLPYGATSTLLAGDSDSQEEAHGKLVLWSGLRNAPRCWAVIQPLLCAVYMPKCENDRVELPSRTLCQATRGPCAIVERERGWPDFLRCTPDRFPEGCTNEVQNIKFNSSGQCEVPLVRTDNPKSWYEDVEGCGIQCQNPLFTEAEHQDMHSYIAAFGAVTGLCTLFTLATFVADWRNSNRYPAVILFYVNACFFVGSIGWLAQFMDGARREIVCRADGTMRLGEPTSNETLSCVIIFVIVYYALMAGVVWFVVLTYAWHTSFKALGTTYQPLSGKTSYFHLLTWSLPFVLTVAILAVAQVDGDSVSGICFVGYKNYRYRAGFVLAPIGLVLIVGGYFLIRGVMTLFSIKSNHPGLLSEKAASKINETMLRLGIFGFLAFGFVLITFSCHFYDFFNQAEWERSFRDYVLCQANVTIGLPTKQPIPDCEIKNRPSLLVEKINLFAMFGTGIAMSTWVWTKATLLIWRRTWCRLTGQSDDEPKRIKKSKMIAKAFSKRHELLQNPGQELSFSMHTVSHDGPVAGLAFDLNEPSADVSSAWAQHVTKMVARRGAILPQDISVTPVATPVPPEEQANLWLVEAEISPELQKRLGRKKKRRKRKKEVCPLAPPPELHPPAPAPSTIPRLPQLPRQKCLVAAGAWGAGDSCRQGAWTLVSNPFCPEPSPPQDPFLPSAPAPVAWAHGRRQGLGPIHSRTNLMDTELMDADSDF
Description: A Smo binding assay was developed using radio-labeled smoothened agonist for compound competition.
Table 1, infra; lists the IC50 for displacement of a small molecule agonist of Smoothened determined in a filter binding format.

[2] = test system: Shh-mediated pathway activation (Gli-luciferase activity of TMHh12 cells); experiment: Gli-Luc reporter assay for Hh pathway inhibition in TMHh12 cells in the presence of Shh protein; assay type: cell-based; details: Mus musculus, read-out: EC50 to block Shh-mediated pathway activation
Description: as §1
Gli-Luc Reporter Assay for Hh Pathway Inhibition
Gli-luciferase activity of TMHh12 cells was determined in the presence of Shh protein.

[3] = 1 nM small molecule Smo agonist, read-out: Gli_luc (1 nM Smo agonist) IC50
[4] = 25 nM small molecule Smo agonist, read-out: Gli_luc (25 nM Smo agonist) IC50

IC50 [1, 3] [nM]	IC50 [1, 4] [nM]	IC50 (Smoothened) [nM]	EC50 [2] [nM]	Compound
19	279	15	9.4	Cc1cccc(C(=O)Nc2ccc3c(c2)C[C@@H](NCc2ccccn2)C3)c1-c1ccc(C(F)(F)F)cc1 [Example 6, 6-Methyl-4′-trifluoromethyl-biphenyl-2-carboxylic acid {(S)-2-[(pyridin-2-ylmethyl)-amino]-indan-5-yl}-amide]
136	1440	39		Cc1cccc(C(=O)Nc2ccc3c(c2)C[C@@H](NCc2cccnc2Cl)C3)c1-c1ccc(C(F)(F)F)cc1 [Example 30]
281	3040	28		Cc1cccc(C(=O)Nc2ccc3c(c2)C[C@@H](NCc2ccc4c(c2)CCO4)C3)c1-c1ccc(C(F)(F)F)cc1 [Example 31]
261	2860	130		COc1ccc(CN[C@H]2Cc3ccc(NC(=O)c4cccc(C)c4-c4ccc(C(F)(F)F)cc4)cc3C2)cn1 [Example 32]
1720	13300	6250		Cc1cccc(C(=O)Nc2ccc3c(c2)C[C@@H](N(C)Cc2ccccn2)C3)c1-c1ccc(C(F)(F)F)cc1 [Example 38]
145	1910	445		Cc1cccc(C(=O)Nc2ccc3c(c2)CC(NCc2nccn2C)C3)c1-c1ccc(C(F)(F)F)cc1 (stereo not shown) [Example 40]
82	616	3		Cc1cccc(C(=O)Nc2ccc3c(c2)CC(NCc2cc4ccccc4o2)C3)c1-c1ccc(C(F)(F)F)cc1 (stereo not shown) [Example 41]
85	1140	141		Cc1cccc(C(=O)Nc2ccc3c(c2)CC(NCc2ccccn2)C3)c1-c1ccc(C(F)(F)F)cc1 (stereo not shown) [Example 45]
226	2680	118		COC(=O)NC(CNC1Cc2ccc(NC(=O)c3cccc(C)c3-c3ccc(C(F)(F)F)cc3)cc2C1)Cc1ccccc1 (stereo not shown) [Example 49]
901	11900	621		Cc1cccc(C(=O)Nc2ccc3c(c2)CC(NCC2CCCCC2)C3)c1-c1ccc(C(F)(F)F)cc1 (stereo not shown) [Example 50]
7000	11200	13700		COC(=O)N1CCC(CNC2Cc3ccc(NC(=O)c4cccc(C)c4-c4ccc(C(F)(F)F)cc4)cc3C2)CC1 (stereo not shown) [Example 51]
261	1800	7910		O=C(Nc1ccc2c(c1)CC(NCCc1ccccc1)C2)c1ccccc1-c1ccc(C(F)(F)F)cc1 (stereo not shown) [Example 53]
8680	6800	16700		Cc1ccc(-c2ccc(C(F)(F)F)cc2)c(C(=O)Nc2ccc3c(c2)CC(NCc2ccccn2)C3)c1 (stereo not shown) [Example 54]
165	4180	271		O=C(Nc1ccc2c(c1)CC(NCc1ccccc1)C2)c1ccccc1-c1ccc(C(F)(F)F)cc1 (stereo not shown) [Example 56]
3060	17400	28		Cc1cccc(C(=O)Nc2ccc3c(c2)CC(NCc2nc4ccccc4n2C)C3)c1-c1ccc(C(F)(F)F)cc1 (stereo not shown) [Example 57]
651	10100	4300		CCCNC1Cc2ccc(NC(=O)c3cccc(C)c3-c3ccc(C(F)(F)F)cc3)cc2C1 (stereo not shown) [Example 58]
112	3490	21		Cc1cccc(C(=O)Nc2ccc3c(c2)CC(NCc2cccn2C)C3)c1-c1ccc(C(F)(F)F)cc1 (stereo not shown) [Example 59]
13200	23600	3650		O=C(Nc1ccc2c(c1)CC(NCc1ncc[nH]1)C2)c1cccc(C(F)(F)F)c1-c1ccc(C(F)(F)F)cc1 (stereo not shown) [Example 60]

IC50 [1, 3] [nM]	IC50 [1, 4] [nM]	IC50 (Smoothened) [nM]	EC50 [2] [nM]	Compound
2100	11900	299		Cc1cccc(C(=O)Nc2ccc3c(c2)CC(NCc2c[nH]c4ccccc24)C3)c1-c1ccc(C(F)(F)F)cc1 (stereo not shown) [Example 61]
141	1630	103		Cc1cccc(C(=O)Nc2ccc3c(c2)CC(NCc2ccco2)C3)c1-c1ccc(C(F)(F)F)cc1 (stereo not shown) [Example 62]
686	14000	493		Cc1cccc(C(=O)Nc2ccc3c(c2)CC(NCc2ccoc2)C3)c1-c1ccc(C(F)(F)F)cc1 (stereo not shown) [Example 63]
48	1310	135		Cc1cccc(C(=O)Nc2ccc3c(c2)CC(NCc2ccc(-c4ccc(Cl)cc4)o2)C3)c1-c1ccc(C(F)(F)F)cc1 (stereo not shown) [Example 64]
246	10000	593		Cc1cccc(C(=O)Nc2ccc3c(c2)CC(NCc2cccnc2)C3)c1-c1ccc(C(F)(F)F)cc1 (stereo not shown) [Example 66]
142	4190	486		Cc1cccc(C(=O)Nc2ccc3c(c2)CC(NCc2ccncc2)C3)c1-c1ccc(C(F)(F)F)cc1 (stereo not shown) [Example 67]
138	4860	367		Cc1cccc(C(=O)Nc2ccc3c(c2)CCC(NCc2ccccn2)CC3)c1-c1ccc(C(F)(F)F)cc1 (stereo not shown) [Example 68]
2490	12600	619		Cc1cccc(C(=O)Nc2ccc3c(c2)CCC(NCc2ccccc2)CC3)c1-c1ccc(Cl)cc1 (stereo not shown) [Example 69]
5	235	11		Cc1cccc(C(=O)Nc2ccc3c(c2)CC(NCc2ccccc2F)C3)c1-c1ccc(C(F)(F)F)cc1 (stereo not shown) [Example 71]
99	2240	936		Cc1ccc(C(=O)Nc2ccc3c(c2)C[C@H](NCc2ccccn2)C3)c(-c2ccccc2)c1 [Example 73]
19	557	47		Cc1cccc(C(=O)Nc2ccc3c(c2)C[C@@H](Nc2ccccc2)C3)c1-c1ccc(C(F)(F)F)cc1 [Example 74, 6-Methyl-4′-trifluoromethyl-biphenyl-2-carboxylic acid ((S)-2-phenylamino-indan-5-yl)-amide]
700	4480	881		CCOC(=O)NC1CCc2ccc(NC(=O)c3cccc(C)c3-c3ccc(C(F)(F)F)cc3)cc2CC1 (stereo not shown) [Example 84]
1010	1300	60		CS(=O)(=O)NC1Cc2ccc(NC(=O)c3cccc(F)c3-c3ccc(C(F)(F)F)cc3)cc2C1 (stereo not shown) [Example 92]
1900		217		CCCCS(=O)(=O)NC1Cc2ccc(NC(=O)c3cccc(C)c3-c3ccc(C(F)(F)F)cc3)cc2C1 (stereo not shown) [Example 102]
4780	10200	3200		Cc1cccc(C(=O)Nc2ccc3c(c2)CCC(NS(C)(=O)=O)CC3)c1-c1ccc(C(F)(F)F)cc1 (stereo not shown) [Example 103]
3560		3520		O=C(Nc1ccc2c(c1)CCC(NS(=O)(=O)c1ccccc1F)CC2)c1ccccc1-c1ccc(C(F)(F)F)cc1 (stereo not shown) [Example 104]
833	20400	338		Cc1cccc(C(=O)Nc2ccc3c(c2)CCC(NS(=O)(=O)c2cccs2)CC3)c1-c1ccc(C(F)(F)F)cc1 (stereo not shown) [Example 105]
5960		330		Cc1cccc(C(=O)Nc2ccc3c(c2)CCC(NS(=O)(=O)c2ccccc2F)CC3)c1-c1ccc(C(F)(F)F)cc1 (stereo not shown) [Example 106]
